Drawing on ChEMBL document CHEMBL1201862, “PubChem BioAssay data set” (2004), this text covers IC50, CC50 and EC50 for four compounds.

The target of experiment [1] is Nonstructural protein 1 (Influenza A virus, UniProt Q194T2). In kind it is functional, Influenza A virus (A/California/07/2009(H1N1)).
Experiment [2] concerns Vero. Kind of experiment: Vero E6 cell cytotoxicity, dose response, cytotoxicity control (AID 540298). In kind it is functional. The settings on record: Chlorocebus sabaeus.
Experiment [3] deals with MDCK. Kind of experiment: MDCK cell cytotoxicity, dose response, cytotoxicity control (AID 540296). In kind it is functional. The settings on record: Canis lupus familiaris.
In experiment [4] the test system is MDCK. Kind of experiment: antiviral activity against H1N1 influenza, dose response, cell-based, strain KY136 (AID 540257). It counts as functional. Conditions: Canis lupus familiaris.
The target in experiment [5] is T1, Endoribonuclease toxin MazF (Escherichia coli K-12, UniProt P0AE70).
T1 sequence (P0AE70 whole entry): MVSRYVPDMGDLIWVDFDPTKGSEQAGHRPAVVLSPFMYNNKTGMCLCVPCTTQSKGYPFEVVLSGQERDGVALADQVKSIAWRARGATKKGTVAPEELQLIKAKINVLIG
Kind of experiment: MazF endoribonuclease activators, SAR follow-up, biochemical, fluorescence, single-stranded RNA substrate (AID 588603). In kind it is functional.

Experiment [6] addresses T1, Endoribonuclease toxin MazF. Kind of experiment: MazF toxin RNase activators, dose response, biochemical, fluorescence, single-stranded RNA substrate, uHTS hits (AID 588481). In kind it is functional.
The subject of experiment [7] is MEF. Kind of experiment: SAR analysis of small molecule cytotoxicity of MazEF TA System activators in embryonic fibroblast (MEF) cells. [Related pubchem assays (depositor defined):AID504720, AID504743]. It counts as functional. The settings on record: Mus musculus.
The target in experiment [8] is T1, Endoribonuclease toxin MazF. Kind of experiment: fluorescent RNA oligo signal without MazF, dose response, counter-screen for MazEF activator project, biochemical, fluorescence, single-stranded RNase substrate (AID 588502). It counts as functional. A general note: Counterscreens check selectivity or assay interference.
Experiment [9] shares this target. Kind of experiment: SAR analysis of small molecule activators of the MazEF TA System via a fluorescence-based single-stranded RNase assay counterscreen. [Related pubchem assays (depositor defined):AID504720, AID504743]. It counts as functional.
For experiment [10], the target named is T2, Sentrin-specific protease 7 (Homo sapiens, UniProt Q9BQF6).
T2 sequence (Q9BQF6 whole entry): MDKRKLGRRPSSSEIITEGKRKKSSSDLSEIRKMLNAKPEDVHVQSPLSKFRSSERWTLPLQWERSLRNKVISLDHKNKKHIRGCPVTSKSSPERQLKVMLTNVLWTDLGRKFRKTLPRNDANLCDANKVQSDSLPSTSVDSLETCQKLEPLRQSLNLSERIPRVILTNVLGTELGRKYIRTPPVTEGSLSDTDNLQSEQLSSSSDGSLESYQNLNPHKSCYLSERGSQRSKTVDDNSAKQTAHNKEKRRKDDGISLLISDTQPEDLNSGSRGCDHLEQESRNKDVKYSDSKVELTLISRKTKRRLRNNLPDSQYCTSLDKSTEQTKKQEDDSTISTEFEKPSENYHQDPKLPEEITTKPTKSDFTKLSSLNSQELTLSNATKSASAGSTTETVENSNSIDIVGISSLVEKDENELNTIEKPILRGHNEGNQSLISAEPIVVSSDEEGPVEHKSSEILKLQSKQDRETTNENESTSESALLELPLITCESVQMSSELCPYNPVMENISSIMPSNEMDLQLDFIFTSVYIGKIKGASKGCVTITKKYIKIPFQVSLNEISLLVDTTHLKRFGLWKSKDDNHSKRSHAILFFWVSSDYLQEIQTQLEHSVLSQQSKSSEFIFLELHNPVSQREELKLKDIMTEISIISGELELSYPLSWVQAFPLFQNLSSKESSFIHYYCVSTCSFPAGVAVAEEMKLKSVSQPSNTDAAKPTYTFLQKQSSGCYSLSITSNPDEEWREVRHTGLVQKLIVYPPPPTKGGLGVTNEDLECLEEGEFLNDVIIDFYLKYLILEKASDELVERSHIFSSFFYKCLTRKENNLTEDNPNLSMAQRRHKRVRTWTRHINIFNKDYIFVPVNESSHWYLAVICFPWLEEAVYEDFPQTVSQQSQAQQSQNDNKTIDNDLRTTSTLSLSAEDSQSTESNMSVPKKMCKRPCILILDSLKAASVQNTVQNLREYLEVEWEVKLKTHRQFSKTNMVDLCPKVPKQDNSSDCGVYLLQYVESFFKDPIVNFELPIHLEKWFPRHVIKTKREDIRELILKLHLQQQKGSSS
Kind of experiment: SENP7 protease inhibitors, SAR follow-up, biochemical, luminescence (AID 504497). In kind it is functional.

The target in experiment [11] is T2, Sentrin-specific protease 7. Kind of experiment: SENP7 protease inhibitors, SAR follow-up, biochemical, luminescence, set 2 (AID 588600). In kind it is functional.
In experiment [12] the target is T3, Sentrin-specific protease 8 (Homo sapiens, UniProt Q96LD8).
T3 sequence (Q96LD8 whole entry): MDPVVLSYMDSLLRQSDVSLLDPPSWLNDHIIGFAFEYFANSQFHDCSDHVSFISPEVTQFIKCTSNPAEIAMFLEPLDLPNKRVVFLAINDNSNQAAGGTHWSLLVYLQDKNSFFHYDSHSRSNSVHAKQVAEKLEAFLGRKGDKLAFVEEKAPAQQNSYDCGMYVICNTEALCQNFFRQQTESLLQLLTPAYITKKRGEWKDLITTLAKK
Kind of experiment: SENP8 protease inhibitors, SAR follow-up, biochemical, luminescence (AID 504501). It counts as functional.

Experiment [13] has as its target T4, Sentrin-specific protease 6 (Homo sapiens, UniProt Q9GZR1).
T4 sequence (Q9GZR1 whole entry): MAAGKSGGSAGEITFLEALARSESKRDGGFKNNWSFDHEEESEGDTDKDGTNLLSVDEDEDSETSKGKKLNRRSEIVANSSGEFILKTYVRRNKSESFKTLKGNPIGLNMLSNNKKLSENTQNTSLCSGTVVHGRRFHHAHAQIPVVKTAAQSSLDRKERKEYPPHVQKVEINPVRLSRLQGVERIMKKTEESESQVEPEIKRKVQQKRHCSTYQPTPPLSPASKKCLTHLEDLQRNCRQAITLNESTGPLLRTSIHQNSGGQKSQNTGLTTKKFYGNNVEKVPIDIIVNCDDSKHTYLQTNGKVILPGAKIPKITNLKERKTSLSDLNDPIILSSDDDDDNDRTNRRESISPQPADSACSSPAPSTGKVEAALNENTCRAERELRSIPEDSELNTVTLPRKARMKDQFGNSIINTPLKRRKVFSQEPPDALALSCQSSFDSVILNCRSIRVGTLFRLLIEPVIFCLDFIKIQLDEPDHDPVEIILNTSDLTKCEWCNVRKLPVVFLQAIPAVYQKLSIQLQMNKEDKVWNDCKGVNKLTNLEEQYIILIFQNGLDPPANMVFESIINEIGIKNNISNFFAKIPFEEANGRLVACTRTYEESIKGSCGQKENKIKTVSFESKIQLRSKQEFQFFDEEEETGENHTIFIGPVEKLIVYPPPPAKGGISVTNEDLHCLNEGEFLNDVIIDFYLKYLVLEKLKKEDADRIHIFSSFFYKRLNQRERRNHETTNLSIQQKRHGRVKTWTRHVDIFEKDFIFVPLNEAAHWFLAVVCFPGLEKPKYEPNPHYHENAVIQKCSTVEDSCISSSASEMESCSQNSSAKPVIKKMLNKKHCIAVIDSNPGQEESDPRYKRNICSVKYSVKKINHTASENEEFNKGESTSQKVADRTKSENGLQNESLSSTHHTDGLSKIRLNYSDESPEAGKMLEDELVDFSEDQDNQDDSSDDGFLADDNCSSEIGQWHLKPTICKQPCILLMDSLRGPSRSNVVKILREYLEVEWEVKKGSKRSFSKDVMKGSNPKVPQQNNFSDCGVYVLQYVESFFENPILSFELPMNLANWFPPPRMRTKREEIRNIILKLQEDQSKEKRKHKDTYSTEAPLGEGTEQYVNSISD
Kind of experiment: SENP6 protease inhibitors, SAR follow-up, biochemical, luminescence, set 2 (AID 588598). It counts as functional.

The target of experiment [14] is T3, Sentrin-specific protease 8. Kind of experiment: SENP8 protease inhibitors, SAR follow-up, biochemical, luminescence, set 2 (AID 588601). It counts as functional.
The target in experiment [15] is T4, Sentrin-specific protease 6. Kind of experiment: SAR Analysis of small molecule inhibitors of Sentrin-specific protease 6 (SENP6) using a Luminescent assay. [Related pubchem assays (depositor defined):AID2582, AID2599]. In kind it is functional.
Experiment [16] concerns the target T5, Caspase-3 (Homo sapiens, UniProt P42574).
T5 sequence (P42574 whole entry): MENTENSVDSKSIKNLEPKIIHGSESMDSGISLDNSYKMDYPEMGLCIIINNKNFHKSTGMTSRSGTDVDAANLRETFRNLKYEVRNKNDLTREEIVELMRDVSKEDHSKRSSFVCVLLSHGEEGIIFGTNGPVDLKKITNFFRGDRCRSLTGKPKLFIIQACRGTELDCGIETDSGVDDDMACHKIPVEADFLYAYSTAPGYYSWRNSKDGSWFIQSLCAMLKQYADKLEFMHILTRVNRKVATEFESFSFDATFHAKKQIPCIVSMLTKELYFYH
Kind of experiment: SAR Analysis of small molecule inhibitors of Sentrin-specific proteases (SENPs) using a Caspase-3 Selectivity assay. [Related pubchem assays (depositor defined):AID2540, AID2599, AID434973, AID489001]. It counts as functional.

In experiment [17] the target is T5, Caspase-3. Kind of experiment: caspase-3 inhibitors as off-family protease, SAR follow-up, selectivity assay for SENP protease inhibitor project, biochemical, luminescence, set 2 (AID 588599). In kind it is functional.
The target in experiment [18] is Hexokinase HKDC1 (Homo sapiens, UniProt Q2TB90). Kind of experiment: HKDC1 hexokinase inhibitors, dose response, biochemical, W721R variant (AID 504729). It counts as functional.
Experiment [19] has as its target Beta-adrenergic receptor kinase 1 (Homo sapiens, UniProt P25098). Kind of experiment: aptamer displacement from bead-bound GRK2 – biochemical, cherry pick 1, bead flow cytometry, dose response (AID 504500). Background: A flow cytometer gives signals particle by particle.
For experiment [20], the target named is T6, Carboxy-terminal domain RNA polymerase II polypeptide A small phosphatase 1 (Homo sapiens, UniProt Q9GZU7).
T6 sequence (Q9GZU7 whole entry): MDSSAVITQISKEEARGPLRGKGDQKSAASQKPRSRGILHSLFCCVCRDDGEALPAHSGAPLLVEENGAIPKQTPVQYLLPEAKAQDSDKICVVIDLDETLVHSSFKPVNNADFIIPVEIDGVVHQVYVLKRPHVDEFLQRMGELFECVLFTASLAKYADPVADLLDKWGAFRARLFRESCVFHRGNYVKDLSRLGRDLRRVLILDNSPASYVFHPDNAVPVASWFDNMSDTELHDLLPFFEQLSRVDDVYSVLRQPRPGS
Kind of experiment: inhibitors of CTDSP1, concentration-response testing, biochemical assay, absorbance-based, actives from ultra-high-throughput screening (AID 540297). It counts as functional.

Experiment [21] has as its target T7, Tyrosyl-DNA phosphodiesterase 2 (Homo sapiens, UniProt O95551).
T7 sequence (O95551 whole entry): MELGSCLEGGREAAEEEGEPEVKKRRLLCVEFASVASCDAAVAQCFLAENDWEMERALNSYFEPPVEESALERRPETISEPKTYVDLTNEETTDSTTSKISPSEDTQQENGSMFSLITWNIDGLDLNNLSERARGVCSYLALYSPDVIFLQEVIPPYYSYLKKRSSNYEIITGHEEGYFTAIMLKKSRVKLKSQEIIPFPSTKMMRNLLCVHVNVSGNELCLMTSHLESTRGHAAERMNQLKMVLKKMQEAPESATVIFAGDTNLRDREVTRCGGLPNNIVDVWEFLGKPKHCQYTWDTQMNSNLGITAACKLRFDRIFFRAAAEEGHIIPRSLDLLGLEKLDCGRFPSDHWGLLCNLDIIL
Kind of experiment: human TDP2 enzyme inhibitors, dose response, biochemical, epi absorbance, IC50 (AID 743297).

Where “and” joins values, the source holds several entries; their conditions need not be identical. Equal values may be shown once. Calls of active or inactive are those of the source.

Chain of Nonstructural protein 1 (Q194T2 whole entry): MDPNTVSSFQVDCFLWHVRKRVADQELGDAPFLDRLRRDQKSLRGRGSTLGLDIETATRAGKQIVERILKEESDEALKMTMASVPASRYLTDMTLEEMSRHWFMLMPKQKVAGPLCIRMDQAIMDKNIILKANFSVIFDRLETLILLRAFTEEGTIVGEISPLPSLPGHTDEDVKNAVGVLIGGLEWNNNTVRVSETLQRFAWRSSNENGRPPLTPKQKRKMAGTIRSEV
Chain of Hexokinase HKDC1 (Q2TB90 whole entry): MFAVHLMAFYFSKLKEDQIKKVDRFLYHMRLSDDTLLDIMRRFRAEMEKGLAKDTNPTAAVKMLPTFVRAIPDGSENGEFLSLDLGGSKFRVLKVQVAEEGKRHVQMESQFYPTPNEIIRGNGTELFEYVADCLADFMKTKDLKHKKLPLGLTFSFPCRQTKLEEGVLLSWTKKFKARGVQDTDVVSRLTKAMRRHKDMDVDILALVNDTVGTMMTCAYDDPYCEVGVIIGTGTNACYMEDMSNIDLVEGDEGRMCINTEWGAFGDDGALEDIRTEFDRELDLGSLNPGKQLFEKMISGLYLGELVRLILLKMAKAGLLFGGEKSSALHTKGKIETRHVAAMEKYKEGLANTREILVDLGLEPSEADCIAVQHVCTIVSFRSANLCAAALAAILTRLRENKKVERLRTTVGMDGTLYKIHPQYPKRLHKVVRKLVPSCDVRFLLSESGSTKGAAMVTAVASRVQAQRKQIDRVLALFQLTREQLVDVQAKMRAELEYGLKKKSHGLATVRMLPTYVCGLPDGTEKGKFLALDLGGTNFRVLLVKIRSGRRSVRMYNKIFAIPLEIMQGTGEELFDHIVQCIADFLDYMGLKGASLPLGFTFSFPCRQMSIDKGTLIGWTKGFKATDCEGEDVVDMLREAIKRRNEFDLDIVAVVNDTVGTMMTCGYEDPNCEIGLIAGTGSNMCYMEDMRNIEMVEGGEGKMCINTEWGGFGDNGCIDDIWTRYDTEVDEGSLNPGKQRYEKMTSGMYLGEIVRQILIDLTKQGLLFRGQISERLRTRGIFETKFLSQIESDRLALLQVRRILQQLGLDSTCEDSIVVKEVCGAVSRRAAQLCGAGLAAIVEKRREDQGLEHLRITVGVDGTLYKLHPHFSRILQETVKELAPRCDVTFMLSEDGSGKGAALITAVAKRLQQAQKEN
Chain of Beta-adrenergic receptor kinase 1 (P25098 whole entry, the tested form may be a part): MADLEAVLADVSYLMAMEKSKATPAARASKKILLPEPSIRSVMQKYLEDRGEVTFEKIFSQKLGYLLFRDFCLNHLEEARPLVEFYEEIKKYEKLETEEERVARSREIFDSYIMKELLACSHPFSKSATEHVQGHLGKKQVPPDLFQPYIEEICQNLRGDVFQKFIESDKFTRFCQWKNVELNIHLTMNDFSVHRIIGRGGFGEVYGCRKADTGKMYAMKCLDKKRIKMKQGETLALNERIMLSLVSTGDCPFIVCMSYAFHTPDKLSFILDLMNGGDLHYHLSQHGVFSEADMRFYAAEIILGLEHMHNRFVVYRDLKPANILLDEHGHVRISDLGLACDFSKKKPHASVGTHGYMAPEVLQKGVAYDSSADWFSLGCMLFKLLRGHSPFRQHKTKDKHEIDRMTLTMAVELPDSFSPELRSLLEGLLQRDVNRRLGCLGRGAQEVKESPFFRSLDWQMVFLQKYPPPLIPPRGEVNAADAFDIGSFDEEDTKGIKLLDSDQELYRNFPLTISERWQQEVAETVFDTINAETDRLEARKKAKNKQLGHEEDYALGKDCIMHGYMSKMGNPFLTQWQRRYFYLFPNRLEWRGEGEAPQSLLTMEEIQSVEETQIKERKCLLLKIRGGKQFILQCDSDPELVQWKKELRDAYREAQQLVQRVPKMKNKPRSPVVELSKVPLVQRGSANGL

As a reminder, the IC50 is the concentration that inhibits the measured activity by half. The term CC50 denotes the concentration that lowers cell viability or growth by half. On to `Fc1ccc(-[n+]2nc(Nc3ccccc3)sc2-c2c(Cl)cccc2Cl)cc1`, for which the IC50 was 51.2 µM (active) in [1] and > 100 µM (active) in experiment [4]. For the same compound, the CC50 was 23.2 µM (active) in experiment [2] and 11.6 µM (active) in [3].

As a reminder, the EC50 is the midpoint of the concentration-response curve. Consider `O=C(C1=NN[C@@H]2C(=O)N(c3cccc(F)c3)C(=O)[C@H]12)c1ccc2ccccc2n1`, for which the EC50 in experiment [5] is 24.4 µM (inactive); in experiment [6], 20.5 µM (inactive); in experiment [8], > 99 µM (inactive); in experiment [9], > 99 µM (inactive). Moreover, the CC50 in experiment [7] is > 99 µM (inactive).

As to `CCCCc1ccc2nc(NC(=O)c3ccco3)sc2c1`, the IC50 in experiment [10] is 1.6 µM (active); in experiment [11], 3.3 µM (active); in experiment [12], 2 µM (active); in experiment [13], 2.89 µM (active); in [14], 2.95 µM (active); in [15], 1.8 µM (active). Further, the results for the IC50 in experiment [16] and in [17] were 4 µM (active) and 3.36 µM (active), respectively.

Turning to `O=C(O)c1ccccc1-c1c2cc(I)c(=O)c(I)c-2oc2c(I)c(O)c(I)cc12`, the IC50 in [18] was 14.4 µM (active); in [1], 19.4 µM (active); in [20] it was 1.89 µM (active); in [21] it was > 14.3 µM (inactive) and 35.7 µM (inactive). Also, the EC50 in experiment [19] is 14.7 µM (inactive).
